These results are taken from patent publication US20060106102A1, “Napththalene derivatives which inhibit the cytokine or biological activity of microphage migration inhibitory factor (mif)” (priority 2002, published 2006).

Usually EC50 stands for the midpoint of the concentration-response curve.

Where two headings read alike, the source gives them in different places.

In assay [1] the test system is murine peritoneal macrophage nitric oxide production. The experiment in a line: murine peritoneal macrophage nitric oxide production (nitrite, Greiss assay). Type of assay: cell-based, C57BL6/J mice. The settings on record: Mus musculus, LPS 10 ng/ml and interferon-γ 10 units/ml, 24 hours, read-out: % Nitrite concentration inhibition from control. The procedure:
C57BL6/J male mice were injected intraperitoneally with 2ml of thioglycollate. Five (5) days later peritoneal macrophages were collected by ravaging the peritoneum of anaesthetized mice with 3 ml of cold Hanks buffered saline solution. Cells from several mice were pooled, washed and re-suspended in DMEM supplemented with 5% FCS. Cells were plated in 96 well plastic tissue culture plates at 1×10^5 cells/well. Cells were treated with compound or vehicle for 1 hour in a 5% CO2 incubator at 37° C. Cells were then treated with LPS (10 ng/ml) and recombinant human interferon-γ (10 units/ml) and incubated for 24 hours. After 24 hours, 50 μl of supernatant from each well was carefully removed and transferred to ELISA plates. The concentration of nitrite in culture supernatants was measured by the Greiss assay (41). The results were defined as the percentage inhibition of nitrite concentration in compound-treated cell culture supernatants compared to that of vehicle-treated cells.

The subject of assay [2] is IL-1-induced COX-2 expression. The experiment in a line: IL-1-induced COX-2 expression in S112 human dermal fibroblasts (MIF-dependent event), flow cytometry. Type of assay: cell-based. The settings on record: Homo sapiens, Fibroblast, IL-1 0.1 ng/ml, 6 hours, S112 cells, read-out: % inhibition of IL-1-induced COX2 expression (Effect). The protocol:
The activity of each compound was studied in a bioassay utilising MIF-dependent activation of human dermal fibroblasts. […] IL-1-induced COX-2 expression is therefore a MIF-dependent event. […] Prior to experimentation, cells were seeded at 10^5 cells/ml in RPMI/0.1% BSA for 18 hours. […] Cells permeabilised with 0.1% saponin were sequentially labelled with a mouse anti-human COX-2 monoclonal antibody and with sheep-anti-mouse F(ab)2 fragment labelled with fluoroscein isothiocyanate. Cellular fluorescence was determined using a flow cytometer. At least 5000 events were counted for each reading, each of which was performed in duplicate, and the results expressed in mean fluorescence intensity (MFI) after subtraction of negative control-labelled cell fluorescence. The effect of each compound was determined by subtracting the IL-1+compound-treated cell MFI from the IL-1-treated cell MFI and expressed as % inhibition. In each case the % inhibition of IL-1-induced COX2 expression is shown as the mean, or mean±SEM where results are available from multiple experiments.
(A flow cytometer gives signals particle by particle.)

The test system of assay [3] is rat adjuvant-induced arthritis (AIA) model. As to the kind of experiment: rat adjuvant-induced arthritis (AIA) model. It counts as in vivo, Sprague-Dawley rats. The settings on record: 1.0 mg/kg once daily intraperitoneal. The procedure: The activity of each compound was studied in the rat adjuvant-induced arthritis (AIA) model of rheumatoid arthritis. […] Male Sprague-Dawley rats (150±20 g) were used. Adjuvant artritis was induced by intradermal injection at the tail base of […] of a 10 mg/ml suspension of heat-inactivated Mycobacterium tuberculosis (Difco, Detroit, Mich.) in squalane. The compound was administered at a dose of 1.0 mg/kg body weight by once daily intraperitoneal injection on each day (treated). Control animals received an identical volume injection of vehicle (control). Joint inflammation in adjuvant arthritis was assessed clinically as follows: • i) Articular index/score: A score of 0 (no observable erythema or swelling) to 4 (severe swelling and erythema) was given for each paw. All four paws were scored, resulting in a maximum possible score of 16 for each animal (34). • ii) Synovial fluid cell number: Joints were exposed by removal of overlying skin, needle arthrocentesis performed and joint space cells obtained by closed needle lavage with 2 ml saline using a 26 gauge needle and syringe. Lavaged cells from both ankle joints were pooled, washed in saline (300 g for 5 minutes), and counted in a hemocytometer (Improved Nebauer, Weber, UK) (34).

Assay [4] relates to antigen-specific T cell activation (splenic T lymphocytes from mBSA-immunised mice). As to the kind of experiment: antigen-specific (mBSA) activation of splenic T lymphocytes in vitro, 3H-thymidine incorporation. Type of assay: cell-based, C57BL6/J mice. The settings on record: for EC50: Mus musculus, T-cell, read-out: EC50 (T cell activation suppressed by 50% compared to vehicle-only-treated cells). The procedure: After a further seven (7) days mice were killed and spleens collected aseptically into Hanks buffered saline solution (HBSS). A single cell suspension was prepared in Petri dishes by flushing DMEM through the organ using a 26G needle and 2 mL syringe. The resulting cell suspension was centrifuged for 5-7 minutes and supernatant discarded. Erythrocytes were lysed using a solution containing 0.579% NH4Cl, 0.000037% EDTA, and 0.1% NaHCO3 in a 37° C. water bath. Tubes were then filled with DMEM and centrifuged for 5-7 minutes. […] The specific stimulating antigen, mBSA, was then added at 10-50 μg/mL and plates incubated for 30 hours in a 37° C., 5% CO2 incubator. Tritiated^3H-thymidine was then added at a concentration of 0.5 μCi/well for a further 18 hours. Cells were harvested on a Packard cell harvester, and the harvested material added to 750 μL/tube scintillation fluid. Scintillation counts were read on a Wallac beta-emnission counter. […] Further compounds were also tested for their ability to inhibit antigen-specific T cell activation as a marker of the inhibition of the cytokine or biological activity of MIF using this assay.
In general terms: Incorporation of labelled thymidine or its analogues reports DNA synthesis.

The test system of assay [5] is murine antigen-induced arthritis. The experiment in a line: murine antigen-induced arthritis, histological score. Type of assay: in vivo, C57BL6/J mice. The settings on record: 15 mg/kg i.p. once per 24 hours; histology at day 28; mice. The protocol: Antigen-induced arthritis was induced in mice. C57BL6/J male mice, aged 7-10 weeks old, were immunized on day 0 with 200 μg methylated BSA (mBSA) emulsified in 200 μl of Freund's complete adjuvant (FCA) injected subcutaneously into the flank skin. Mice were treated with compound 5, administered by intraperitoneal injection, once per 24 hours at a dose of 15 mg/kg body weight. After seven days, mice received 100 μg “mBSA and 100 μl FCA by intradermal injection at the base of the tail. After a further 14 days, arthritis was induced by intra-articular injection of 30 μg mBSA in 10 μl of sterile saline into the left knee, the right knee being injected with sterile saline alone.
Arthritis was analysed histologically at day 28 after first immunisation. Knee joints were dissected and fixed in 10% buffered formalin for 7 days. Fixed tissues were decalcified for 3 weeks in 15% ethylene-diamine-tetra-acetic acid (EDTA), dehydrated and embedded in paraffin. Sagittal sections (5 μm) of the knee joint were stained with Safranin-O and counterstained with fast green /iron hematoxylin. Histological sections were scored from 0 to 3 for four parameters: Synovitis was defined as hyper-cellularity of the synovium including pannus formation. Joint space exudate was identified as leukocytes, discretely or in aggregates, in the joint space. […]

Assay [6] relates to murine endotoxic shock model (LPS). As to the kind of experiment: murine endotoxic shock model, serum cytokines by ELISA. It counts as in vivo. The settings on record: mice. The protocol: The activity of 6,7-dihydroxynaphthalene-3-sulfonic acid (compound 6) was studied in the murine endotoxic shock model. This model has been previously shown to be dependent on MIF (35). […] Endotoxaemia was induced by intra-peritoneal injection of lipopolysaccharide (LPS) (15 mg/kg) in 400 μl saline. Mice were treated with a saline solution (control) only, a saline solution and LPS, or LPS and 6,7-dihydroxynaphthalene-2-sulfonic acid (compound 6) at a dose of 15 mg/kg body weight by intra-peritoneal injection at 24 hours, 12 hours and 1 hour before intra-peritoneal LPS injection. After 1.5 or 6 hours mice were humanely killed by CO2 inhalation then neck dislocation. Serum was obtained from blood obtained by cardiac puncture prior to death and measured for cytokines including interleukin 1 (IL-1) and interleukin 6 (IL-6) by ELISA. The production of IL-1 and IL-6 has been previously shown to be dependent on MIF (36).
The effect of compounds was further tested under a variety of conditions in animals exposed to endotoxic shock induced as above by the injection of 15 mg/kg LPS by intraperitoneal injection. In each case, compounds were administered by intraperitoneal injection at a dose of 15 mg/kg. Compound administration was associated with reductions in serum cytokine concentration under a variety of administration regimens.

Assay [7] relates to recombinant human macrophage migration inhibitory factor (MIF)-induced proliferation of S112 human dermal fibroblasts. The experiment in a line: MIF-induced proliferation of S112 human dermal fibroblasts, 3H-thymidine incorporation. It counts as cell-based. The settings on record: Homo sapiens, Fibroblast; concentration 0.013 μM; rhMIF 50 ng/ml; S112 cells; read-out: % inhibition of proliferation compared to vehicle plus rhMIF-treated cells. The procedure: The activity of each compound was studied in a bioassay utilising MIF-induced proliferation of human dermal fibroblasts. S112 human dermal fibroblasts were propagated in RPMI/10% foetal calf serum (FCS). Prior to experimentation, cells were seeded at 10^5 cells/ml in RPMI/0.1% BSA for 18 hours. At time point zero, culture medium was replaced with RPMI/10% FCS and treatments administered. Cells were treated with recombinant human macrophage migration inhibitory factor (MIF) 50 ng/ml (1.353×10^−9 M) and/or the compound at a 1 or 1000 molar ratio to the concentration of MIF. In some experiments the compound was combined with MIF at time point −30 minutes, prior to adding at time point zero. At time point 30 hours, cells were pulsed with […]. At time point 48 hours, cells were harvested using a semi-automated cell harvester. The radioactivity incorporated into DNA was determined by liquid scintillation counting, with results expressed as [^3H] thymidine incorporation. The proliferation of untreated cells was expressed as 100% and the effect of MIF and each compound expressed in relative %.
The activity of compound 5 was studied in a bioassay utilising MIF-induced proliferation of human dermal fibroblasts. S112 human dermal fibroblasts were propagated in RPMI/10% foetal calf serum (FCS). Prior to experimentation, cells were seeded at 10^5 cells/ml in RPMII/0.1% BSA for 18 hours. At time point zero, culture medium was replaced with RPMI/10% FCS and treatments administered. Cells were treated with recombinant human macrophage migration inhibitory factor (MIF) 50 ng/ml and/or compound 5 at a 1-1000 molar ratio to the concentration of MIF. At a time point 30 hours later, cells were pulsed with 1 μCi/well of ^3H-thymidine. At a time point 48 hours after commencement of the experiment, cells were harvested using a semi-automated cell harvester. The radioactivity incorporated into DNA was determined by liquid scintillation counting, with results expressed as [^3H] thymidine incorporation.

`COc1cc2ccccc2cc1OC` [Compound 2, 6,7-dimethoxynaphthalene]: the inhibition at 25 µM in assay [1] (25 uM) turned out to be 5.8%. Further, the inhibition at 50 µM in assay [1] (50 uM) stood at 8.5%. Also, in assay [1] (100 uM), the inhibition at 100 µM was determined as 13.6%. Further, in assay [2] (compound 0.1 uM), the inhibition at 0.1 µM amounted to 11.6%. Also, in assay [3], the “arthritis severity (articular index, synovial fluid cell number; FIGS. 5 and 6)” value is given as “significant inhibition of arthritis severity”. In addition, the EC50 in assay [4] (mBSA 10 μg/ml) came to 18.1 µM; in assay [4] (mBSA 50 μg/ml), 52 µM.
In the case of `O=C(O)c1ccc2c([N+](=O)[O-])c(O)ccc2c1` [Compound 23, 6-hydroxy-5-nitro-2-napthoic acid], the inhibition at 10 µM in assay [2] (compound 10 uM) stood at 8%. For the same compound, in assay [5], the “individual parameters of arthritis (synovitis, joint space exudate, cartilage degradation, bone damage; FIG. 11b)” value was “Clinically significant reductions in the severity of all individual parameters of arthritis” and the “total arthritis score (FIG. 11a)” value is given as “clinically significant reduction in total arthritis score”. For the same compound, the “serum IL-1, LPS plus compound” value in assay [6] (compound 15 mg/kg i.p. at −16 h before LPS 15 mg/kg i.p.) amounted to 58 ± 13 ng/mL. The EC50 in assay [4] (mBSA 10 μg/ml) is more than 100 µM. The EC50 in assay [4] (mBSA 50 μg/ml) is more than 100 µM. Besides, the “effect on antigen-specific T cell activation (FIG. 10)” value in assay [4] (increasing concentrations, mBSA 50 μg/mL) was “dose-dependent and statistically significant inhibitory effect”.
On to `O=S(=O)(O)c1ccc2cc(O)ccc2c1` [Compound 24, 6-Hydroxy-2-naphthalene-sulfonic acid], for which, in assay [2] (compound 1 uM), the inhibition at 1 µM is 8.2%. In addition, in assay [6] (compound 15 mg/kg i.p. at −24 h, −1 h before LPS 15 mg/kg i.p.), the “Serum IL-6, LPS plus compound” value came to 144 ± 18 ng/mL. Also, the inhibition at 0.013 µM in assay [7] worked out at 18%.
